Measured values reported in PubChem BioAssay (NCI).
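Where inhibition never reached the appropriate level, the endpoint shown equals the highest concentration tested. Otherwise, values were interpolated linearly from a five-concentration, 48-hour dose response in 96-well plates. TGI: concentration producing complete growth inhibition.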

How the values were obtained:
Assay in all cases: NCI anticancer screen, dose series, 48 h
786-0 renal = system: 786-0 renal
SF-295 CNS = system: SF-295 CNS
OVCAR-5 ovarian = system: OVCAR-5 ovarian
NCI-H23 lung = system: NCI-H23 lung
SW-620 colon = system: SW-620 colon
DLD-1 colon = system: DLD-1 colon
SNB-75 CNS = system: SNB-75 CNS
DMS 273 small cell lung = system: DMS 273 small cell lung
ACHN renal = system: ACHN renal
SK-OV-3 ovarian = system: SK-OV-3 ovarian
LOX IMVI melanoma = system: LOX IMVI melanoma
SK-MEL-2 melanoma = system: SK-MEL-2 melanoma
SK-MEL-5 melanoma = system: SK-MEL-5 melanoma
HCT-116 colon = system: HCT-116 colon
EKVX NSCLC = system: EKVX NSCLC
IGROV1 ovarian = system: IGROV1 ovarian
KM12 colon = system: KM12 colon
NCI-H226 lung = system: NCI-H226 lung
SNB-19 CNS = system: SNB-19 CNS
DMS 114 small cell lung = system: DMS 114 small cell lung
M19-MEL melanoma = system: M19-MEL melanoma
XF 498 CNS = system: XF 498 CNS
OVCAR-3 ovarian = system: OVCAR-3 ovarian
OVCAR-4 ovarian = system: OVCAR-4 ovarian
SNB-78 CNS = system: SNB-78 CNS
TK-10 renal = system: TK-10 renal
M14 melanoma = system: M14 melanoma
SF-539 CNS = system: SF-539 CNS
SR leukemia = system: SR leukemia
COLO 205 colon = system: COLO 205 colon
SK-MEL-28 melanoma = system: SK-MEL-28 melanoma
HT29 colon = system: HT29 colon
HOP-92 NSCLC = system: HOP-92 NSCLC
NCI-H460 lung = system: NCI-H460 lung
OVCAR-8 ovarian = system: OVCAR-8 ovarian
SF-268 CNS = system: SF-268 CNS
CCRF-CEM leukemia = system: CCRF-CEM leukemia
A549 NSCLC = system: A549 NSCLC
UO-31 renal = system: UO-31 renal
U251 CNS = system: U251 CNS
MALME-3M melanoma = system: MALME-3M melanoma
KM20L2 colon = system: KM20L2 colon
MOLT-4 leukemia = system: MOLT-4 leukemia
RXF 393 renal = system: RXF 393 renal
SN12C renal = system: SN12C renal
CAKI-1 renal = system: CAKI-1 renal
UACC-62 melanoma = system: UACC-62 melanoma
NCI-H522 lung = system: NCI-H522 lung
K-562 leukemia = system: K-562 leukemia
LXFL 529 NSCLC = system: LXFL 529 NSCLC
HCT-15 colon = system: HCT-15 colon
UACC-257 melanoma = system: UACC-257 melanoma
RPMI-8226 leukemia = system: RPMI-8226 leukemia
HOP-62 NSCLC = system: HOP-62 NSCLC
HOP-18 NSCLC = system: HOP-18 NSCLC
HL-60(TB) leukemia = system: HL-60(TB) leukemia
HCC-2998 colon = system: HCC-2998 colon

Measured: TGI

CC12Oc3ccc4ccccc4c3C1c1c(ccc3ccccc13)O2 (stereo not given)
> 100 µM: 786-0 renal | SF-295 CNS | OVCAR-5 ovarian | NCI-H23 lung | SW-620 colon | DLD-1 colon | SNB-75 CNS | DMS 273 small cell lung | ACHN renal | SK-OV-3 ovarian | LOX IMVI melanoma | SK-MEL-2 melanoma | SK-MEL-5 melanoma | HCT-116 colon | EKVX NSCLC | IGROV1 ovarian | KM12 colon | NCI-H226 lung | SNB-19 CNS | DMS 114 small cell lung | M19-MEL melanoma | XF 498 CNS | OVCAR-3 ovarian | OVCAR-4 ovarian | SNB-78 CNS | TK-10 renal | M14 melanoma | SF-539 CNS | SR leukemia | COLO 205 colon | SK-MEL-28 melanoma | HT29 colon | HOP-92 NSCLC | NCI-H460 lung | OVCAR-8 ovarian | SF-268 CNS | CCRF-CEM leukemia | A549 NSCLC | UO-31 renal | U251 CNS | MALME-3M melanoma | KM20L2 colon | MOLT-4 leukemia | RXF 393 renal | SN12C renal | CAKI-1 renal | UACC-62 melanoma | NCI-H522 lung | K-562 leukemia | LXFL 529 NSCLC

CC1=C(C)C(=O)c2c(cc3c4ccccc4ccn23)C1=O
> 100 µM: 786-0 renal | SF-295 CNS | NCI-H23 lung | HCT-15 colon | SW-620 colon | DLD-1 colon | UACC-257 melanoma | SNB-75 CNS | DMS 273 small cell lung | ACHN renal | SK-OV-3 ovarian | LOX IMVI melanoma | RPMI-8226 leukemia | SK-MEL-2 melanoma | SK-MEL-5 melanoma | HOP-62 NSCLC | EKVX NSCLC | IGROV1 ovarian | KM12 colon | NCI-H226 lung | SNB-19 CNS | DMS 114 small cell lung | M19-MEL melanoma | XF 498 CNS | OVCAR-3 ovarian | TK-10 renal | M14 melanoma | HOP-18 NSCLC | SF-539 CNS | COLO 205 colon | SK-MEL-28 melanoma | HT29 colon | NCI-H460 lung | OVCAR-8 ovarian | A549 NSCLC | UO-31 renal | U251 CNS | MALME-3M melanoma | KM20L2 colon | MOLT-4 leukemia | RXF 393 renal | SN12C renal | UACC-62 melanoma | NCI-H522 lung | K-562 leukemia

Cn1c(O)c(C=N)c(=O)n(C)c1=O
> 100 µM: 786-0 renal | SF-295 CNS | OVCAR-5 ovarian | NCI-H23 lung | HCT-15 colon | SW-620 colon | DLD-1 colon | UACC-257 melanoma | SNB-75 CNS | ACHN renal | LOX IMVI melanoma | RPMI-8226 leukemia | SK-MEL-2 melanoma | SK-MEL-5 melanoma | EKVX NSCLC | KM12 colon | NCI-H226 lung | SNB-19 CNS | HL-60(TB) leukemia | DMS 114 small cell lung | M19-MEL melanoma | XF 498 CNS | OVCAR-3 ovarian | OVCAR-4 ovarian | SNB-78 CNS | TK-10 renal | M14 melanoma | HOP-18 NSCLC | SR leukemia | SK-MEL-28 melanoma | HCC-2998 colon | HT29 colon | HOP-92 NSCLC | NCI-H460 lung | OVCAR-8 ovarian | SF-268 CNS | CCRF-CEM leukemia | A549 NSCLC | UO-31 renal | U251 CNS | MALME-3M melanoma | KM20L2 colon | MOLT-4 leukemia | RXF 393 renal | SN12C renal | CAKI-1 renal | NCI-H522 lung | K-562 leukemia

COC(=O)C(=C\Sc1ccccc1)/C=C/C(=O)OC(C)(C)C
9.9 µM: NCI-H522 lung
7.59 µM: DLD-1 colon
9.44 µM: MOLT-4 leukemia
28.3 µM: XF 498 CNS
30.9 µM: NCI-H226 lung
23.9 µM: M19-MEL melanoma
21 µM: SR leukemia
34.3 µM: SF-295 CNS
17 µM: OVCAR-3 ovarian
26.5 µM: UACC-257 melanoma
42 µM: A549 NSCLC
24.9 µM: EKVX NSCLC
25.8 µM: DMS 114 small cell lung
27.7 µM: U251 CNS
31.9 µM: SNB-78 CNS
15.3 µM: SNB-19 CNS
10.9 µM: 786-0 renal
36.1 µM: HT29 colon
21.7 µM: LOX IMVI melanoma
14 µM: COLO 205 colon
27 µM: SF-539 CNS
43.9 µM: SK-OV-3 ovarian
13.5 µM: LXFL 529 NSCLC
24.5 µM: DMS 273 small cell lung
21.9 µM: HCT-116 colon
27.5 µM: IGROV1 ovarian
> 29 µM: SN12C renal
30.7 µM: MALME-3M melanoma
33.2 µM: NCI-H460 lung
8.48 µM: RPMI-8226 leukemia
24.8 µM: SK-MEL-2 melanoma
12.4 µM: SW-620 colon
26.2 µM: SK-MEL-28 melanoma
5.35 µM: CCRF-CEM leukemia
17.2 µM: ACHN renal
21.6 µM: HCC-2998 colon
28.6 µM: SK-MEL-5 melanoma | OVCAR-4 ovarian
3.73 µM: HL-60(TB) leukemia
29.5 µM: UO-31 renal
34.8 µM: HOP-62 NSCLC
31.2 µM: OVCAR-8 ovarian
12.1 µM: CAKI-1 renal
21.2 µM: M14 melanoma
7.7 µM: RXF 393 renal
30 µM: HOP-18 NSCLC
31.8 µM: SF-268 CNS
15.8 µM: K-562 leukemia
31.1 µM: KM20L2 colon
17.7 µM: HCT-15 colon
30.8 µM: TK-10 renal
33.1 µM: NCI-H23 lung
24.3 µM: KM12 colon
28.8 µM: OVCAR-5 ovarian | UACC-62 melanoma
13.3 µM: HOP-92 NSCLC
28.5 µM: SNB-75 CNS
